Test results from ChEMBL document CHEMBL5120854, “Discovery of Natural Ursane-type SENP1 Inhibitors and the Platinum Resistance Reversal Activity Against Human Ovarian Cancer Cells: A Structure-Activity Relationship Study” (J Nat Prod, 2022).
Active and inactive are the calls of the source. No cut-off for these calls is given here.

Assays:
[1] = molecular target: T1, Sentrin-specific protease 1 (Homo sapiens) (UniProt Q9P0U3); experiment: Inhibition of SENP1 in human SK-OV-3 cells assessed as increase in SUMOlytated JAK2 level at 5 uM after 48 hrs by immunoprecipitation method; assay type: cell-based
T1 sequence (whole entry): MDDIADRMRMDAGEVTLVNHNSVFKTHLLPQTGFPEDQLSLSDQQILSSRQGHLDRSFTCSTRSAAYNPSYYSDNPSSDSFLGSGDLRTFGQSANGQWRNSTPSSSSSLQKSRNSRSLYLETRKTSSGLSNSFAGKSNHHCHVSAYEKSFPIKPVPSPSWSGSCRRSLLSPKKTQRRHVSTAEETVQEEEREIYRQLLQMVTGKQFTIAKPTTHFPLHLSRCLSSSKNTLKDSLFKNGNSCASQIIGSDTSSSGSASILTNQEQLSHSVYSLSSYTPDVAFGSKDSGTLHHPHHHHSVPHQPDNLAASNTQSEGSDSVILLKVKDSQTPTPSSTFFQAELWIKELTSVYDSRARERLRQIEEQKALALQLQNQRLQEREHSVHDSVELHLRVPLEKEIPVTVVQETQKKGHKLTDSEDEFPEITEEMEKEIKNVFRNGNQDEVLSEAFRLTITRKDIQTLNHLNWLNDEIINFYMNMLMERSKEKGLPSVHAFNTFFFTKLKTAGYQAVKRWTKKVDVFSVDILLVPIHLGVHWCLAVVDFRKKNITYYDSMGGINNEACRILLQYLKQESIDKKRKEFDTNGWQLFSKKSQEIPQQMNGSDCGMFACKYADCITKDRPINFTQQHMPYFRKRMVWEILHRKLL

[2] = test system: SK-OV-3; experiment: Synergistic reversal of platinum resistance in cisplatin-resistant human SK-OV-3 cells assessed as combination index after 48 hrs in presence of cisplatin by SRB assay; assay type: functional
[3] = test system: SK-OV-3; experiment: Cytotoxicity against human SK-OV-3 cells assessed as reduction in cell viability incubated for 48 hrs by SRB assay; assay type: functional, cell-based; details: SK-OV-3, 48 h
[4] = molecular target: T2, Sentrin-specific protease 1 (Homo sapiens, UniProt Q9P0U3); experiment: (§1) Inhibition of recombinant human SENP1 assessed as reduction in deSUMOylation using RanGAP1-SUMO1 as substrate preincubated for 10 mins followed by substrate addition and measured after 30 mins
T2 sequence (Q9P0U3 whole entry): T1 sequence (whole entry)

[5] = molecular target: T1, Sentrin-specific protease 1 (Homo sapiens); experiment: as §1; details: time 40.0 min, DDE = dose-dependent effect
[6] = molecular target: T1, Sentrin-specific protease 1 (Homo sapiens); experiment: Inhibition of recombinant human SENP1 assessed as reduction in deSUMOylation of RanGAP1-SUMO1 at 5 uM using RanGAP1-SUMO1 as substrate preincubated for 10 mins followed by substrate addition and measured after 30 mins relative to control; details: time 40.0 min
[7] = test system: SK-OV-3; experiment: Cytotoxicity against human SK-OV-3 cells assessed as cell viability at 500 uM incubated for 48 hrs by SRB assay; assay type: functional; details: read-out: Activity
[8] = test system: SK-OV-3; experiment: Reversal of platinum resistance in cisplatin-resistant human SK-OV-3 cells assessed as reduction in cisplatin IC50 after 48 hrs in presence of cisplatin by SRB assay (reference value: 28.23 microM); assay type: functional, cell-based; details: SK-OV-3, 48 h
[9] = test system: SK-OV-3; experiment: Cytotoxicity against human SK-OV-3 cells assessed as reduction in cell viability at 25 uM incubated for 48 hrs by SRB assay; assay type: functional, cell-based

Row | Structure (SMILES) | inhibition [6] [%] | also measured
1 | C[C@@H]1CC[C@]2(C(=O)O)CC[C@]3(C)C(=CC[C@@H]4[C@@]5(C)CC[C@H](O)C(C)(C)[C@@H]5CC[C@]43C)[C@@H]2[C@]1(C)O [POMOLIC ACID] | > 100 | inhibition [1]: Active; CI [2]: 0.23; IC50 [3]: 51.6 µM; IC50 [4]: 5.1 µM; inhibition [5]: Dde; viability at 500 µM [7]: > 25%; IC50 [8]: 3.69 µM
2 | C[C@H]1[C@H](C)CC[C@]2(C(=O)O)CC[C@]3(C)C(=CC[C@@H]4[C@@]5(C)CC[C@H](O)C(C)(C)[C@@H]5CC[C@]43C)[C@H]12 | 87.6 | 
3 | C[C@H]1[C@H](C)CC[C@]2(C)CC[C@]3(C)C(=CC(=O)[C@@H]4[C@@]5(C)CC[C@@H](O)[C@](C)(C(=O)O)[C@@H]5CC[C@]43C)[C@H]12 | 8.9 | 
4 | C[C@@H]1CC[C@]2(C(=O)O)CC[C@]3(C)C(=CC[C@@H]4[C@@]5(C)C[C@@H](O)[C@H](O)C(C)(C)[C@@H]5CC[C@]43C)[C@@H]2[C@]1(C)O [TOMENTIC ACID] | > 100 | inhibition [1]: Active; CI [2]: 0.3; IC50 [3]: 23.2 µM; IC50 [4]: 4.3 µM; inhibition [5]: Dde; viability at 500 µM [7]: > 25%; IC50 [8]: 2.4 µM
5 | C=C(C)[C@@H]1CC[C@]2(C)[C@H](CC=C3[C@@H]4[C@@H](C)[C@H](C)CC[C@]4(C)CC[C@]32C)[C@@]1(C)CCC(=O)O | 5.5 | 
6 | C[C@@H]1CC[C@]2(C(=O)O)CC[C@]3(C)C(=CC[C@@H]4[C@@]5(C)CC[C@H](O)[C@@](C)(CO)[C@@H]5[C@H](O)C[C@]43C)[C@@H]2[C@]1(C)O | 0.5 | 
7 | CC1(C)CC[C@]2(C(=O)O)[C@H](O)C[C@]3(C)C(=CC[C@@H]4[C@@]5(C)CC[C@H](O)C(C)(C)[C@@H]5CC[C@]43C)[C@@H]2C1 |  | IC50 [3]: 96.5 µM; IC50 [8]: 21.5 µM
8 | C[C@@H]1CC[C@]2(C(=O)O)CC[C@]3(C)C(=CC[C@@H]4[C@@]5(C)C[C@@H](O)[C@@H](O)C(C)(C)[C@@H]5CC[C@]43C)[C@@H]2[C@]1(C)O | 66.6 | 
9 | C[C@H]1[C@H](C)CC[C@]2(C)CC[C@]3(C)C(=CC[C@@H]4[C@@]5(C)CC[C@@H](O)[C@](C)(C(=O)O)[C@@H]5CC[C@]43C)[C@H]12 | 3.9 | 
10 | C[C@H]1[C@H](C)CC[C@]2(C(=O)O)CC[C@]3(C)C(=CC[C@@H]4[C@@]5(C)C[C@@H](O)[C@H](O)[C@@](C)(CO)[C@@H]5CC[C@]43C)[C@H]12 | 6.6 | 

Continued, in another order:

Row | inhibition [6] [%] | Structure (SMILES) | also measured
11 | 19.9 | C[C@@H]1CC[C@]2(C(=O)O)CC[C@]3(C)C(=CC[C@@H]4[C@@]5(C)CC[C@@H](O)[C@](C)(CO)[C@@H]5CC[C@]43C)[C@@H]2[C@]1(C)O | 
12 | 58.4 | C[C@H]1[C@H](C)CC[C@]2(CO)CC[C@]3(C)C(=CC[C@@H]4[C@@]5(C)CC[C@H](O)C(C)(C)[C@@H]5CC[C@]43C)[C@H]12 | 
13 | 1.7 | C[C@@H]1CC[C@]2(C(=O)O)CC[C@]3(C)C(=CC[C@@H]4[C@@]5(C)C[C@H](O)[C@H](O)C(C)(C)[C@@H]5CC[C@]43C)[C@@H]2[C@]1(C)O | 
14 | 3.2 | C[C@@H]1CC[C@]2(C(=O)O)CC[C@]3(C)C(=CC[C@@H]4[C@@]5(C)CC[C@H](O)C(C)(C)[C@@H]5[C@H](O)C[C@]43C)[C@@H]2[C@]1(C)O | 
15 | 69.2 | C[C@@H]1[C@H]2C3=CC[C@@H]4[C@@]5(C)CC[C@H](O)C(C)(C)[C@@H]5CC[C@@]4(C)[C@]3(C)CC[C@@]2(C)CC[C@H]1C(=O)O | 
16 | 78.4 | C[C@@H]1CC[C@]2(C(=O)O)CC[C@]3(C)C(=CC[C@@H]4[C@@]5(C)[C@H](O)[C@@H](O)[C@H](O)C(C)(C)[C@@H]5CC[C@]43C)[C@@H]2[C@]1(C)O | 
17 | 1.9 | C[C@@H]1CC[C@]2(C(=O)O)CC[C@]3(C)C(=CC[C@@H]4[C@@]5(C)[C@H](O)C(=O)[C@H](O)C(C)(C)[C@@H]5CC[C@]43C)[C@@H]2[C@]1(C)O | 
18 | 65.5 | C[C@@H]1[C@H]2C3=CC[C@@H]4[C@@]5(C)CC[C@@H](O)C(C)(C)[C@@H]5CC[C@@]4(C)[C@]3(C)CC[C@@]2(C)[C@@H](O)C[C@H]1C(=O)O | 
19 | 34.4 | C[C@H]1[C@H](C)CC[C@]2(C(=O)O)CC[C@]3(C)C(=CC[C@@H]4[C@@]5(C)C[C@@H](O)[C@H](O)C(C)(C)[C@@H]5CC[C@]43C)[C@H]12 [COROSOLIC ACID] | Activity [9]: Active; IC50 [3]: 10.5 µM; IC50 [8]: 26.4 µM
20 | 6 | C[C@@H]1CC[C@]2(C(=O)O)CC[C@]3(C)C(=CC[C@@H]4[C@@]5(C)C=C(O)C(=O)C(C)(C)[C@@H]5CC[C@]43C)[C@@H]2[C@]1(C)O | 
21 | 8.4 | C[C@H]1[C@H](C)CC[C@]2(C(=O)O)CC[C@]3(C)C(=CC[C@@H]4[C@@]5(C)CC[C@@H](O)C(C)(C)[C@@H]5CC[C@]43C)[C@H]12 | 
